Molecular target: LSD-1 enzyme (Homo sapiens (Human), UniProt O60341)
Assay: LANCE LSD1/KDM1A demethylase assay (LSD1 histone demethylase biochemical assay)
Conditions: 1 nM LSD-1 enzyme, 1 hour preincubation at 25° C., 0.4 μM biotin-labeled Histone H3 peptide substrate
Method: LANCE LSD1/KDM1A demethylase assay—10 μL of 1 nM LSD-1 enzyme (ENZO BML-SE544-0050) in the assay buffer (50 mM Tris, pH 7.5, 0.01% Tween-20, 25 mM NaCl, 5 mM DTT) were preincubated for 1 hour at 25° C. with 0.8 μL compound/DMSO dotted in black 384 well polystyrene plates. […] After stopping the reactions plates were incubated for 30 minutes and read on a PHERAstar FS plate reader (BMG Labtech).

| SMILES | IC50 |
| --- | --- |
| CS(=O)(=O)N1CC(CC#N)(N2CCC(N[C@@H]3C[C@H]3c3ccccc3)CC2)C1 [Example 58, [1-(methylsulfonyl)-3-(4-{[(1R,2S)-2-phenylcyclopropyl]amino}piperidin-1-yl)azetidin-3-yl]acetonitrile] | ≤ 100 nM |
| CCS(=O)(=O)N1CC(CC#N)(N2CCC(CN[C@@H]3C[C@H]3c3ccccc3)CC2)C1 (relative stereo) [Example 31, [1-(Ethylsulfonyl)-3-(4-{[(trans-2-phenylcyclopropyl)amino]methyl}piperidin-1-yl)azetidin-3-yl]acetonitrile] | 100 to 500 nM |
| N#CCC1(N2CCC(CN[C@@H]3C[C@H]3c3ccccc3)CC2)CN(c2ccc(C(F)(F)F)cn2)C1 (relative stereo) [Example 37, {3-(4-{[(trans-2-Phenylcyclopropyl)amino]methyl}piperidin-1-yl)-1-[5-(trifluoromethyl)pyridin-2-yl]azetidin-3-yl}acetonitrile] | ≤ 100 nM |
| CN(C)C(=O)CC1(N2CCC(N[C@@H]3C[C@H]3c3ccccc3)CC2)CN(C(=O)N(C)C)C1 [Example 96, 3-[2-(dimethylamino)-2-oxoethyl]-N,N-dimethyl-3-(4-{[(1R,2S)-2-phenylcyclopropyl]amino}piperidin-1-yl)azetidine-1-carboxamide] | ≤ 100 nM |
| O=C(O)CC1(N2CCC(CN[C@@H]3C[C@H]3c3ccccc3)CC2)CNC1 (relative stereo) [Example 50, [3-(4-{[(trans-2-Phenylcyclopropyl)amino]methyl}piperidin-1-yl)azetidin-3-yl]acetic acid] | ≤ 100 nM |
| Cn1cc(S(=O)(=O)N2CC(CC#N)(N3CCC(N[C@@H]4C[C@H]4c4ccccc4)CC3)C2)cn1 [Example 100, [1-[(1-methyl-1H-pyrazol-4-yl)sulfonyl]-3-(4-{[(1R,2S)-2-phenylcyclopropyl]amino}piperidin-1-yl)azetidin-3-yl]acetonitrile] | ≤ 100 nM |
| CC1(CN[C@@H]2C[C@H]2c2ccccc2)CCN(C2(CC(=O)O)CCC2)CC1 [Example 55, {1-[4-methyl-4-({[(1R,2S)-2-phenylcyclopropyl]amino}methyl)piperidin-1-yl]cyclobutyl}acetic acid] | ≤ 100 nM |
| N#CCC1(N2CCC(CN[C@@H]3C[C@H]3c3ccccc3)CC2)CN(C(=O)Nc2cccc(Cl)c2F)C1 (relative stereo) [Example 43, N-(3-Chloro-2-fluorophenyl)-3-(cyanomethyl)-3-(4-{[(trans-2-phenylcyclopropyl)amino]methyl}piperidin-1-yl)azetidine-1-carboxamide] | ≤ 100 nM |
| CN1CC(CC#N)(N2CCC(CN[C@@H]3C[C@H]3c3ccccc3)CC2)C1 (relative stereo) [Example 49, [1-Methyl-3-(4-{[(trans-2-phenylcyclopropyl)amino]methyl}piperidin-1-yl)azetidin-3-yl]acetonitrile] | ≤ 100 nM |
| N#CCC1(N2CCC(CN[C@@H]3C[C@H]3c3ccccc3)CC2)CN(C(=O)c2ccccc2)C1 (relative stereo) [Example 45, [1-Benzoyl-3-(4-{[(trans-2-phenylcyclopropyl)amino]methyl}piperidin-1-yl)azetidin-3-yl]acetonitrile] | ≤ 100 nM |
| CS(=O)(=O)N1CCC(CC#N)(N2CC(CN[C@@H]3C[C@H]3c3ccccc3)C2)CC1 (relative stereo) [Example 20, [1-(Methylsulfonyl)-4-(3-{[(trans-2-phenylcyclopropyl)amino]methyl}azetidin-1-yl)piperidin-4-yl]acetonitrile] | ≤ 100 nM |
| CNC(=O)CC1(N2CCC(CN[C@@H]3C[C@H]3c3ccccc3)CC2)CNC1 (relative stereo) [Example 51, N-Methyl-2-(3-(4-((trans-2-phenylcyclopropylamino)methyl)piperidin-1-yl)azetidin-3-yl)acetamide] | ≤ 100 nM |
| CC(=O)N1CCC(CC#N)(N2CC(CN[C@@H]3C[C@H]3c3ccccc3)C2)CC1 (relative stereo) [Example 18, [1-Acetyl-4-(3-{[(trans-2-phenylcyclopropyl)amino]methyl}azetidin-1-yl)piperidin-4-yl]acetonitrile] | ≤ 100 nM |
| CN1CC(CC(=O)O)(N2CCC(N[C@@H]3C[C@H]3c3ccccc3)CC2)C1 [Example 66, [1-methyl-3-(4-{[(1R,2S)-2-phenylcyclopropyl]amino}piperidin-1-yl)azetidin-3-yl]acetic acid] | ≤ 100 nM |
| CS(=O)(=O)N1CC(CCO)(N2CCC(N[C@@H]3C[C@H]3c3ccccc3)CC2)C1 [Example 93, 2-[1-(methylsulfonyl)-3-(4-{[(1R,2S)-2-phenylcyclopropyl]amino}piperidin-1-yl)azetidin-3-yl]ethanol] | ≤ 100 nM |
| N#CCC1(N2CCC(N[C@@H]3C[C@H]3c3ccccc3)CC2)CN(S(N)(=O)=O)C1 [Example 65, 3-(cyanomethyl)-3-(4-{[(1R,2S)-2-phenylcyclopropyl]amino}piperidin-1-yl)azetidine-1-sulfonamide] | ≤ 100 nM |

| SMILES | IC50 |
| --- | --- |
| N#CCC1(N2CCC(CN[C@@H]3C[C@H]3c3ccccc3)CC2)CCC1 (relative stereo) [Example 32, [1-(4-{[(trans-2-Phenylcyclopropyl)amino]methyl}piperidin-1-yl)cyclobutyl]acetonitrile] | ≤ 100 nM |
| N#CCC1(N2CCC(N[C@@H]3C[C@H]3c3ccccc3)CC2)CN(C(=O)[C@@H]2CCCO2)C1 [Example 116, {3-(4-{[(1R,2S)-2-phenylcyclopropyl]amino}piperidin-1-yl)-1-[(2S)-tetrahydrofuran-2-ylcarbonyl]azetidin-3-yl}acetonitrile] | ≤ 100 nM |
| N#CCC1(N2CC(CN[C@@H]3C[C@H]3c3ccccc3)C2)CCN(C(=O)Nc2ccc(F)cc2)CC1 (relative stereo) [Example 25, 4-(Cyanomethyl)-N-(4-fluorophenyl)-4-(3-{[(trans-2-phenylcyclopropyl)amino]methyl}azetidin-1-yl)piperidine-1-carboxamide] | ≤ 100 nM |
| N#CCC1(N2CCC(CN[C@@H]3C[C@H]3c3ccccc3)CC2)CN(c2ncccc2C(F)(F)F)C1 (relative stereo) [Example 36, {3-(4-{[(trans-2-Phenylcyclopropyl)amino]methyl}piperidin-1-yl)-1-[3-(trifluoromethyl)pyridin-2-yl]azetidin-3-yl}acetonitrile] | ≤ 100 nM |
| CC(C)NC(=O)N1CCC(CC#N)(N2CC(CN[C@@H]3C[C@H]3c3ccccc3)C2)CC1 (relative stereo) [Example 24, 4-(Cyanomethyl)-N-isopropyl-4-(3-{[(trans-2-phenylcyclopropyl)amino]methyl}azetidin-1-yl)piperidine-1-carboxamide] | ≤ 100 nM |
| N#CCC1(N2CCC(N[C@@H]3C[C@H]3c3ccccc3)CC2)CN(C(=O)Cc2ccccn2)C1 [Example 118, [3-(4-{[(1R,2S)-2-phenylcyclopropyl]amino}piperidin-1-yl)-1-(pyridin-2-ylacetyl)azetidin-3-yl]acetonitrile] | ≤ 100 nM |
| N#CCC1(N2CCC(N[C@@H]3C[C@H]3c3ccccc3)CC2)CN(C(=O)N2CC(O)C2)C1 [Example 89, [1-[(3-hydroxyazetidin-1-yl)carbonyl]-3-(4-{[(1R,2S)-2-phenylcyclopropyl]amino}piperidin-1-yl)azetidin-3-yl]acetonitrile] | ≤ 100 nM |
| N#CCC1(N2CCC(N[C@@H]3C[C@H]3c3ccccc3)CC2)CN([C@H]2CC[C@H](O)CC2)C1 [Example 72, [1-(trans-4-hydroxycyclohexyl)-3-(4-{[(1R,2S)-2-phenylcyclopropyl]amino}piperidin-1-yl)azetidin-3-yl]acetonitrile] | ≤ 100 nM |
| CN(C)C(=O)CN1CC(CC#N)(N2CCC(N[C@@H]3C[C@H]3c3ccccc3)CC2)C1 [Example 77, 2-(3-(cyanomethyl)-3-(4-(((1R,2S)-2-phenylcyclopropyl)amino)piperidin-1-yl)azetidin-1-yl)-N,N-dimethylacetamide] | ≤ 100 nM |
| N#CCC1(N2CCC(N[C@@H]3C[C@H]3c3ccccc3)CC2)CN(C(=O)c2ccccc2)C1 (relative stereo) [Example 7, (1-Benzoyl-3-{4-[(trans-2-phenylcyclopropyl)amino]piperidin-1-yl}azetidin-3-yl)acetonitrile] | ≤ 100 nM |
| CNC(=O)CC1(N2CCC(N[C@@H]3C[C@H]3c3ccccc3)CC2)CN(C2CCOCC2)C1 [Example 122, N-methyl-2-[3-(4-{[(1R,2S)-2-phenylcyclopropyl]amino}piperidin-1-yl)-1-(tetrahydro-2H-pyran-4-yl)azetidin-3-yl]acetamide] | ≤ 100 nM |
| N#CCC1(N2CCC(CN[C@@H]3C[C@H]3c3ccccc3)CC2)CN(C(=O)c2ccccc2F)C1 (relative stereo) [Example 46, [1-(2-Fluorobenzoyl)-3-(4-{[(trans-2-phenylcyclopropyl)amino]methyl}piperidin-1-yl)azetidin-3-yl]acetonitrile] | ≤ 100 nM |
| N#CCC1(N2CCC(N[C@@H]3C[C@H]3c3ccccc3)CC2)CN(C(=O)[C@@H]2CCOC2)C1 [Example 114, {3-(4-{[(1R,2S)-2-phenylcyclopropyl]amino}piperidin-1-yl)-1-[(3R)-tetrahydrofuran-3-ylcarbonyl]azetidin-3-yl}acetonitrile] | ≤ 100 nM |
| N#CCC1(N2CCC(N[C@@H]3C[C@H]3c3ccccc3)CC2)CN(C(=O)c2cncs2)C1 [Example 109, [3-(4-{[(1R,2S)-2-phenylcyclopropyl]amino}piperidin-1-yl)-1-(1,3-thiazol-5-ylcarbonyl)azetidin-3-yl]acetonitrile] | ≤ 100 nM |
| CNC(=O)CC1(N2CCC(N[C@@H]3C[C@H]3c3ccccc3)CC2)CN(C(=O)N(C)C)C1 [Example 97, N,N-dimethyl-3-[2-(methylamino)-2-oxoethyl]-3-(4-{[(1R,2S)-2-phenylcyclopropyl]amino}piperidin-1-yl)azetidine-1-carboxamide] | ≤ 100 nM |

From US9994546B2, “Cyclopropylamines as LSD1 inhibitors” (Incyte Corporation, priority 2014, dated 2018)
